# What was measured:
# [1] = target: T1, TLR2 (Homo sapiens, UniProt O60603); test: NF-kB luciferase reporter assay in TLR2-transfected HEK293 cells; format: cell-based
# T1 construct: FLAG; host or cells: HEK293
# Protocol: HEK293 cells were plated onto 24-well plates (2×10^5 cells/well) and cotransfected with 0.1 μg of pFLAG-TLR2, 0.01 μg of pNF-kB-luc, and 0.01 μg of the pRL-TK internal control plasmid (Promega, Madison, Wis.) using lipofectamine 2000 (Invitrogen, Carlsbad, Calif.). After 24 h, the transfected cells were stimulated with various synthetic lipopeptide or recombinant proteins for 24 h. The cells were lysed so that the luciferase activity could be measured using a dual-luciferase reporter assay system (Promega Co., Madison, Wis.). Firefly-luciferase activities were related to Renilla-luciferase activities for the purposes of normalization. Both firefly and Renilla luciferase activities were monitored using a Berthold Orion II luminometer (Pforzheim, Germany).
# [2] = tested on: bone marrow-derived dendritic cells; test: lipo-Nter stimulation of BM-DCs, cytokine ELISA (Example 4); format: cell-based, mouse; details: lipo-Nter 100 nM
# Protocol: BM-DCs were harvested as previously described (Lutz et al., 1999). Briefly, femurs and tibiae of 6-8 week old female mice were removed, and the bone marrow cells were dispersed by vigorous pipetting. After removing red blood cells with lysis buffer, the isolated bone marrow cells were resuspended to a density of 2−5×10^5/ml cells with RPMI-10: RPMI-1640 (GIBCO BRL, Grand Island, N.Y.) supplemented with 10% P/S, L-glutamine (2 mM, Sigma), 2-mercaptoethanol (50 μM, Sigma), and 10% heat-inactivated FBS. On days 0, 3, and 6, bone marrow cells were added to Petri dishes containing 200 U/mL (20 ng/ml) of recombinant mouse granulocyte macrophage colony stimulating factor (MoGM-CSF, Peprotech, Rocky Hill, N.J.) in RPMI-10. At day 6, either LPS (0.01 μg/ml), lipo-Nter (100 nM) was added. Generally, immature dendritic cells made up 70% of the total cell population. The production of cytokines by BM-DCs was determined using ELISA. Briefly, 100 μL of anti-cytokine (10 μg/ml of IL-12p40, TNF-α) antibodies (R&D system Inc. Minneapolis, Minn.) were coated onto 96-well microtiter plates with 0.1 M carbonate buffer, pH 9.6, following overnight incubation at 4° C. […] The plates were read at 450 nm using an ELISA plate reader (Molecular Devices, CA). The production levels of the cytokines were calculated by subtracting the values obtained for non-stimulated groups.
# [3] = tested on: rE7m; test: Anti-E7m IgG ELISA after immunization of mice with rE7m with or without lipo-Nter (Example 5); format: in vivo, mouse; details: subcutaneous, combined with 20 μg rE7m, two immunizations at two-week intervals
# Protocol: Five mice (6-8 weeks old) were immunized subcutaneously with 20 μg of rE7m with or without lipo-Nter. The mice were given two immunizations at two-week intervals. Blood was collected from each mouse at different time points as indicated. Sera were prepared and stored at −80° C. until use. The level of anti-E7m IgG in the serum samples was determined by titrating the samples in 96-well plates coated with purified rE7m. Bound IgG was detected with horseradish peroxidase-conjugated goat anti-mouse IgG Fc. After the addition of TMB, the absorbance was measured with an ELISA reader at 450 nm.
# [4] = tested on: TC-1 cells (expressed HPVE7 cells); test: TC-1 tumor growth inhibition, rE7m with or without lipo-Nter (Example 6); format: in vivo, mouse; details: mice with TC-1 tumors, immunized once subcutaneously at day 7, combined with 20 μg rE7m
# Protocol: In this example, assays were conducted to examiner whether the lipo-Nter combined with rE7m can increase the tumor growth inhibition ability. Six mice (6-8 weeks old) were inoculated with 2×10^5 TC-1 cells (expressed HPVE7 cells) at day 0. After 7 days, mice were immunized once subcutaneously with 20 μg of rE7m with or without lipo-Nter. The tumor size was monitored every 2-3 days until tumor volumes higher than 3000 mm^3. The tumor volumes were calculated based on the formula length×width×width/2.
# [5] = tested on: TC-1 cells (expressed HPVE7 cells); test: TC-1 tumor growth inhibition, E7-derived peptide RAH with Pam3 or lipo-Nter (Example 7); format: in vivo, mouse; details: mice with TC-1 tumors, immunized once subcutaneously at day 7, combined with 20 μg E7-derived peptide RAH
# Protocol: Six mice (6-8 weeks old) were inoculated with 2×10^5 TC-1 cells (expressed HPVE7 cells) at day 0. After 7 days, mice were immunized once subcutaneously with 20 μg of E7-derived peptide in the presence of tripamitoylated peptide Pam3 or lipo-Nter. The tumor size was monitored every 2-3 days until tumor volumes higher than 3000 mm^3. The tumor volumes were calculated based on the formula length×width×width/2.
# [6] = tested on: p38, ERK1/2 and JNK1/2 in BM-DCs; test: Western blot analysis of p38, ERK1/2, JNK1/2 phosphorylation in BM-DCs; format: cell-based, mouse; details: 100 nM
# Protocol: The BM-DCs were grown in DMEM or RPMI medium without FBS for 16-18 h and then stimulated with 100 nM of the indicated lipopeptides or lipoprotein for 10, 20, 40, 60, 90, or 120 minutes at 37° C. These treated BM-DCs were then lysed in 25 mM HEPES, 150 mM NaCl, 1 mM EDTA, 1 mM EGTA, 10% glycerol, 1% Triton X-100, 10 mM sodium pyrophosphate, 20 mM b-glycerophosphate, Na3VO4, 10 mM NaF, […], and 1 mM PMSF. The concentration of the protein lysates was determined using the BCA protein assay kit (Pierce, Rockford, Ill.). Fifty microgram of lysates were electrophoresed per lane of a 10% SDS-PAGE gel. After the resolved lysates in the gel were transferred to a PVDF membrane, the membranes were blocked with 5% milk and 0.05% Tween-20. The membranes were incubated with antibodies against p38, pp38, pERK1/2, or pJNK1/2 in 5% w/v BSA, 1×PBS and 0.1% Tween-20. Anti-p38 antibody was used as a control for the protein loading level in each lane. The membrane was developed using the LumiGLO® Chemiluminescent Substrate system (Millipore, Billerica, Mass.). The total p38 level was used for normalization, and the induction of pp38 was determined using image analysis software (Image J1.41, NIH, Bethesda, Md.). Relative phosphorylation was calculated as the (density of pp38/density of p38)×100.
# [7] = tested on: BM-DCs; test: Real-time quantitative PCR of cytokine/chemokine gene expression in BM-DCs; format: cell-based, mouse; details: 100 nM, 2 or 4 hours
# Protocol: The BM-DCs were purified using the Dynabeads® Mouse DC Enrichment Kit (Invitrogen Dynal AS, Oslo, Norway) according to the manufacturer's instructions to 60 90%. The purified BM-DCs were stimulated using medium alone, or with 100 nM of Pam3, BPPcysPEG or rlipo-D1E3, at 37° C. for 2 or 4 hours. Total RNA was extracted from the isolated cells using the RNeasy mini kit (Qiagen, Valencia, Calif.) following the manufacturer's instructions. RNA (0.5-1 μg) was reverse-transcribed to cDNA using an oligo-dT primer in a 20 μl volume and SuperScript III RT (Invitrogen, Carlsbad, Calif.). The mouse Universal Probe Library (UPL) set (Roche, Mannheim, Germany) was used to perform the real-time qPCR assay for gene expression in isolated cell populations (Liu et al. (2007) J Leukoc Biol 82, 354-360.).
# The reaction mixture contained 5 ng cDNA, 0.2 μM primers, and LightCycler 480 Probe Master (Roche), and the reagents were reacted in a LightCycler 480 system (Roche). All qPCRs were carried out using an initial denaturation step at 95° C. for 10 min, followed by 45 cycles of 95° C. for 10 s, 60° C. for 20 s, and 72° C. for 2 s. Target gene expression was normalization to HPRT gene expression. The relative gene expression levels were calculated by comparing the expression levels after treatment with various stimulators to those obtained using medium alone. […]
# T1 sequence (O60603 21-784): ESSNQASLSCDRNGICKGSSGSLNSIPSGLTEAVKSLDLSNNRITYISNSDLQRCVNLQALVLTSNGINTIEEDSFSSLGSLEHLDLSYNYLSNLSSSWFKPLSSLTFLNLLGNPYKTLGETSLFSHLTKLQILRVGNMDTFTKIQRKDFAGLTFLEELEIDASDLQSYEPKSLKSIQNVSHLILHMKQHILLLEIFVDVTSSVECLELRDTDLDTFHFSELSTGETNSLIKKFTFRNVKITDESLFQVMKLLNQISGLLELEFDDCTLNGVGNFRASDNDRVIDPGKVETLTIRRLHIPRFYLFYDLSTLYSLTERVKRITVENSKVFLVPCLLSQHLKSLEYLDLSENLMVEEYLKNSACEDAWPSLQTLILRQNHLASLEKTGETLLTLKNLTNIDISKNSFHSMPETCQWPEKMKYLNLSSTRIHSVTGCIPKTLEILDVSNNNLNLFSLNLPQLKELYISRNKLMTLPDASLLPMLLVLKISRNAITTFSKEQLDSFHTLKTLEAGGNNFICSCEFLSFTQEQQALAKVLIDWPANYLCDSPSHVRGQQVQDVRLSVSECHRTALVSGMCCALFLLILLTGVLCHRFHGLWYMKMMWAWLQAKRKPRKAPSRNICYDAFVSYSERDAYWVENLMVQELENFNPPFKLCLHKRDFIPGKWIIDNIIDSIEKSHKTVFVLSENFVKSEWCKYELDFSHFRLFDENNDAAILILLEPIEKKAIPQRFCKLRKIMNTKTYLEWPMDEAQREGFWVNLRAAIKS
Substance,activation of NF-κB signaling through TLR2 ([1]; purified lipo-Nter),secretion of TNF-α and IL-12p40 [2],anti-E7 antibody (anti-E7m IgG in serum) [3],anti-tumor activity (tumor volume) [4],tumor growth inhibition (tumor volume) [5],"NF-κB signaling activities ([1]; at 0.1 or 1 nM concentration, compared among Pam3, rlipo-D1E3 and BPPcysPEG)",dose response of TLR2-dependent NF-κB activation ([1]; range from 1 μM to 100 nM),time after which phosphorylation dropped down to basal levels [6] [min],"level of the phosphorylation of p38, ERK1/2, JNK1/2 ([6]; compared with Pam3 and rlipo-D1E3)","time of highest induced level of phosphorylation of p38, ERK1/2 and JNK1/2 ([6]; measured 0-120 min) [min]","IL-10, TGFβ and CXCL1 expression levels ([7]; compared among Pam3, BPPcysPEG and rlipo-D1E3)",expression levels of IL-13 ([7]; compared to Pam3)
N-acyl-S-diacylglyceryl-CSQEAK [lipo-Nter],activate NF-κB signaling through TLR2,stimulated bone marrow-derived dendritic cells to secrete TNF-α and IL-12p40,enhanced anti-E7 antibody,anti-tumor activity stronger than that of rE7m alone,could inhibit tumor growth,,,,,,,
"S-[2,3-bispalmitoyloxy-[2R]-propyl-[R]-cysteinyl-amido polyethyleneglycol [BPPcysPEG]",,,,,,highest NF-κB signaling activities,stronger activation of TLR2,60,higher level,10,similar,higher expression levels

# From US8466259B2, “Adjuvants” (National Health Research Institutes, priority 2007, dated 2013)
